Reference: patent US7595320B2, “Hydrazinocarbonyl-thieno[2,3-C]pyrazoles, process for preparing them, compositions containing them and use thereof” (Aventis Pharma S.A., priority 2005, dated 2009)
Counter-ions that a name gives are not always drawn.

Tests used:
CDK2/cycline E = molecular target: T1, CDK2/cycline E (Homo sapiens, UniProt P24941); experiment: CDK2/cyclineE Flashplate test in 96-well format; assay type: biochemical; settings: CDK2/cycline E complex, 1 μM ATP
T1 construct: made in house; host or cells: Sf21 insect cells (baculovirus coinfection)
Procedure, shortened: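 Recombinant human CDK2/cyclin E (His-tagged cyclin E, coexpressed in Sf21 cells), 20 nM, phosphorylates biotinylated pRb peptide (10 μM) with 1 μM ATP plus [γ-33P]ATP in HEPES pH 7.5, MgCl2, DTT at 30 °C. Inhibitors tested at 10 μM down to 0.014 μM; 33P incorporation read by scintillation on streptavidin plates.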

Aurora1 = molecular target: T2, Aurora1 (Homo sapiens, UniProt Q96GD4); experiment: Aurora1 enzymatic test, NuMA phosphorylation with [33P]ATP, Flashplate; assay type: biochemical; settings: Aurora-B/INCENP-C3 recombinant complex, 1 μM ATP
T2 construct: His tag (N); made in house
T2 sequence (Q96GD4 whole entry, species assumed): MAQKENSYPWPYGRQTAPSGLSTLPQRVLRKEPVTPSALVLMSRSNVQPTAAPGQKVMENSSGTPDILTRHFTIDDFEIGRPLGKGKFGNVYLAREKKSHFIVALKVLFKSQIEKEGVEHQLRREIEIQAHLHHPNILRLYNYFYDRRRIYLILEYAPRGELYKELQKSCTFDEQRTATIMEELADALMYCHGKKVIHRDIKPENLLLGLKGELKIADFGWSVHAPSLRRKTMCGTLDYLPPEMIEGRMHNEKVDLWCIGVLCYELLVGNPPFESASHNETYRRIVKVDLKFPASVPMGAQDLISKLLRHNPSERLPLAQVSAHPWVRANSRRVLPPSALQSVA
T2 sequence (Q9NQS7 835-903 partner limits assumed, species assumed): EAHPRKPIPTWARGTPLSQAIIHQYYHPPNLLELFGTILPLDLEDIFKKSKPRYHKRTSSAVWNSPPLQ
Procedure, shortened: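 Recombinant His-tagged Aurora-B/INCENP-C3 complex (10 nM) phosphorylates 500 nM His-NuMA fragment with 1 µM ATP plus [33P]ATP, 30 minutes at 37° C in Tris pH 7.5 with 5 mM MgCl2, on nickel-chelate Flashplates. Incorporated 33P counted; percent inhibition versus enzyme control after no-enzyme background subtraction.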

Aurora2 = molecular target: T3, Aurora2 (Homo sapiens, UniProt O14965); experiment: Aurora2 enzymatic test, NuMA phosphorylation with [33P]ATP, Flashplate; assay type: biochemical; settings: whole recombinant protein, 1 μM ATP
T3 construct: Aurora2: whole recombinant protein comprising an N-terminal histidine tail; His tag (N); made in house; host or cells: E. coli
T3 sequence (O14965 1-403): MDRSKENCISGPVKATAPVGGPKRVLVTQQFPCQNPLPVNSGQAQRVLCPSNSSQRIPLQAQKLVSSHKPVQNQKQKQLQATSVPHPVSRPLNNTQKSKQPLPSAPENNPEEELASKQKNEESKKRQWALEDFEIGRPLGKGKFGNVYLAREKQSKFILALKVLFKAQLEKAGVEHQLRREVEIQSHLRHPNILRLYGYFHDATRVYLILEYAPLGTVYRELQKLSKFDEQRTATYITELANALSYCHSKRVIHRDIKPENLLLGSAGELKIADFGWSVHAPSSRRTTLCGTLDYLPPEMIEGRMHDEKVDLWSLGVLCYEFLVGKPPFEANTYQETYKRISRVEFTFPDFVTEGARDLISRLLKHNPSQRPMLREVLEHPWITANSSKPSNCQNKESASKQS
Procedure, shortened: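 Full-length His-tagged Aurora2 (E. coli, >82% pure) at 10 nM phosphorylated 500 nM His-NuMA fragment on Ni-chelate Flashplates. Conditions were pH 7.5 Tris buffer with 10 mM MgCl2, 1 μM ATP plus [33P]ATP, 30 min at 37 °C.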

Tie2 = molecular target: T4, Tie2 (Homo sapiens, UniProt Q02763); experiment: Tie2 kinase test, phosphorylation of PLC with GST-Tie2; assay type: biochemical; settings: GST-Tie2 intracellular domain 776-1124
T4 construct: amino acids of the intracellular domain 776-1124; made in house; host or cells: baculovirus expression (pFastBacGT vector)
T4 sequence (Q02763 776-1124): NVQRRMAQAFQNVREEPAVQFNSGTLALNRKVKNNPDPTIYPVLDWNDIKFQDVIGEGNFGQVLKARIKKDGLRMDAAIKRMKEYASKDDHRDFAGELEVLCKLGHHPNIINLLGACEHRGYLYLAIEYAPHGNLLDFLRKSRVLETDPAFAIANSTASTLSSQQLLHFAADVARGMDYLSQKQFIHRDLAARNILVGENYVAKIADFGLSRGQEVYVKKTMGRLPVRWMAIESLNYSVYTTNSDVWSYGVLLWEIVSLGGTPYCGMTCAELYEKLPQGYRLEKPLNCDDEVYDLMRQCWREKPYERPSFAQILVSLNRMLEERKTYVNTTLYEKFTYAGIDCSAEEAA

SMILES: CN1CCCN(Cc2ccc(C(=O)Nc3n[nH]c4sc(C(=O)NN(C)c5ccc(Cl)cc5)cc34)cc2)CC1 (as salt: salt) [Example 12b, 4-(4-methylperhydro-1,4-diazepin-1-ylmethyl)-N-[5-(N′-(4-chlorophenyl)-N′-methylhydrazinocarbonyl)-1H-thieno[2,3-c]pyrazol-3-yl]benzamide]
- melting point: 162 °C

SMILES: CN(NC(=O)c1cc2c(NC(=O)c3ccc(CN4CCOCC4)cc3)n[nH]c2s1)c1ccccc1 [Example 8, N-[5-(N′-methyl-N′-phenylhydrazinocarbonyl)-1H-thieno[2,3-c]pyrazol-3-yl]-4-morpholin-4-ylmethylbenzamide]
- IC50 (CDK2/cycline E): 134 nM
- IC50 (Aurora1): 29 nM
- melting point: 242 °C
- IC50 (Aurora2): 8 nM
- IC50 (Tie2): 252 nM

SMILES: CN(NC(=O)c1cc2c(NC(=O)c3ccc(Br)cc3)n[nH]c2s1)c1ccccc1 [Example 9, 4-bromo-N-[5-(N′-methyl-N′-phenylhydrazinocarbonyl)-1H-thieno[2,3-c]pyrazol-3-yl]benzamide]
- IC50 (CDK2/cycline E): 65 nM
- IC50 (Aurora1): 131 nM
- melting point: 172 °C
- IC50 (Aurora2): 157 nM
- IC50 (Tie2): 820 nM

SMILES: CN(Cc1ccc(C(=O)Nc2n[nH]c3sc(C(=O)NN(C)c4ccccc4)cc23)cc1)c1ccccc1 [Example 24, 4-[(methylphenylamino)methyl]-N-[5-(N′-methyl-N′-phenylhydrazinocarbonyl)-1H-thieno[2,3-c]pyrazol-3-yl]benzamide]
- IC50 (CDK2/cycline E): 1490 nM
- IC50 (Aurora1): 288 nM
- melting point: 242 °C
- IC50 (Aurora2): 49 nM
- IC50 (Tie2): 1030 nM

SMILES: CN1CCN(c2ccc(C(=O)Nc3n[nH]c4sc(C(=O)N/N=C\c5ccccc5)cc34)cc2)CC1 [Example 45, N-[5-(benzylidenehydrazinocarbonyl)-1H-thieno-[2,3-c]pyrazol-3-yl]-4-(4-methylpiperazin-1-yl)benzamide]
- IC50 (CDK2/cycline E): 146 nM
- IC50 (Aurora1): 33 nM
- IC50 (Aurora2): 21 nM
- IC50 (Tie2): 29 nM

SMILES: CN(NC(=O)c1cc2c(NC(=O)c3ccc(OCCN4CCOCC4)cc3)n[nH]c2s1)c1ccccc1 [Example 46, N-[5-(N′-methyl-N′-phenylhydrazinocarbonyl)-1H-thieno[2,3-c]pyrazol-3-yl]-4-(2-morpholin-4-ylethoxy)benzamide]
- IC50 (CDK2/cycline E): 100 nM
- IC50 (Aurora1): 12 nM
- IC50 (Aurora2): 6 nM
- IC50 (Tie2): 275 nM
